Reference: patent US20260317304A1, “TEAD INHIBITORS AND METHODS OF USE” (Sporos BioDiscovery, Inc., priority 2022, published 2026)

What was measured:
MSTO-211H cells = experiment: MSTO-211H proliferation and cell viability assay (CTG); assay type: cell-based; details: Homo sapiens, 144 hours
Description: MSTO-211H cells were trypsinised, counted and plated at 1500 cells/well in 200 μl of growth media in 96 well flat bottom tissue culture treated plates. The plated cells were incubated overnight at 37° C., 5% CO2 before being treated with compounds in triplicate for each assay point. 50 μl of the serially diluted compound was added to each well giving a final DMSO concentration of 0.5% per well and a total volume of 250 μl per well. The treated cells were incubated for 144 hours (6 days) at 37° C., 5% CO2. Following compound treatment, the remaining viable cells were detected using the Promega CellTiter-Glo 2.0 assay as follows: 150 μl of media was removed from each of the wells to be assayed and 100 μl of room temperature CellTiter-Glo 2.0 reagent was added. The plate was placed on an orbital shaker at 500 rpm at room temperature for 2 minutes, and then incubated without shaking for a further 10 minutes at room temperature. 150 μl of cell lysate was removed from each well and dispensed into a single well of a white opaque 96 well plate. Luminescence at 545 nm was read using a BMG CLARIOstar plate reader. The luminescent signal was directly proportional to number of viable cells, the percent of viable cells relative to the DMSO control was then calculated for each assay point. Percent viability relative to DMSO control was plotted against compound concentration and a curve fitted with non-linear regression in GraphPad Prism software. EC50 and absolute IC50 values were calculated using GraphPad Prism software as follows: For EC50 values a non-constrained four-parameter logistic curve fit was used (Sigmoidal, 4PL, X is concentration). For Absolute IC50 values the baseline was constrained to Y=0 and top at 100 (Absolute IC50, X is concentration). Area Under the Curve (AUC): Prism computes area-under-the-curve by the trapezoidal method. The analysis sees a fitted curve as simply a series of connected XY points. Prism simply computes the area under the “curve” defined by connecting the points by straight lines. The units of the AUC are the units of the Y axis times units of the X axis.
For EC50 data, the symbol “A” indicates a value of less than 0.2 μM; the symbol “B” indicates a value in the range of from 0.2 μM up to 1 μM; and the symbol “C” indicates a value of greater than 1 μM.

BHY cells = experiment: BHY proliferation and cell viability assay (CTG); assay type: cell-based; details: 144 hours
Description: BHY cells were trypsinised, counted and plated at 2500 cells/well in 200 μl of growth media in 96 well flat bottom tissue culture treated plates. The plated cells were incubated overnight at 37° C., 5% CO2 before being treated with compounds in triplicate for each assay point. 50 μl of the serially diluted compound was added to each well giving a final DMSO concentration of 0.5% per well and a total volume of 250 μl per well. The treated cells were incubated for 144 hours (6 days) at 37° C., 5% CO2. Following compound treatment, the remaining viable cells were detected using the Promega CellTiter-Glo 2.0 assay as follows: 150 μl of media was removed from each of the wells to be assayed and 100 μl of room temperature CellTiter-Glo 2.0 reagent was added. The plate was placed on an orbital shaker at 500 rpm at room temperature for 2 minutes, and then incubated without shaking for a further 10 minutes at room temperature. 150 μl of cell lysate was removed from each well and dispensed into a single well of a white opaque 96 well plate. Luminescence at 545 nm was read using a BMG CLARIOstar plate reader. The luminescent signal was directly proportional to number of viable cells, the percent of viable cells relative to the DMSO control was then calculated for each assay point. Percent viability relative to DMSO control was plotted against compound concentration and a curve fitted with non-linear regression in GraphPad Prism software. EC50 and absolute IC50 values are calculated using GraphPad Prism software as follows: For EC50 values, a non-constrained four-parameter logistic curve fit was used (Sigmoidal, 4PL, X is concentration). For Absolute IC50 values the baseline was constrained to Y=0 and top at 100 (Absolute IC50, X is concentration). Area Under the Curve (AUC): Prism computes area-under-the-curve by the trapezoidal method. The analysis sees a fitted curve as simply a series of connected XY points. Prism simply computes the area under the “curve” defined by connecting the points by straight lines. The units of the AUC are the units of the Y axis times units of the X axis. […]

NCI-H226 cells = experiment: Proliferation and cell viability assay, CellTiter-Glo 2.0 (CTG); assay type: cell-based, human; details: 144 hrs
Description: Cell proliferation of a TEAD dependent NF2-null mesothelioma cell line, NCI-H226 was assayed using two different protocols. Results were confirmed in two different TEAD-non-dependent lung cancer cell lines, H23 and H28, were used as non-responsive controls, as indicated:
a) CellTiter-Glo® 2.0 (Promega #G9243). The effect of the TEAD inhibitors disclosed herein on cell proliferation was determined in TEAD1-genetically dependent cell line NCI-H226 (responder cell line) and TEAD-independent cell lines (NCI-H23, HEK293T), as non-responder, negative control. Cells were seeded in 96-well plates (Thermo Scientific #167008) in growth media (RPMI-1640, Gibco #61870-010) for NCI-H226 and NCI-H23 or DMEM (Gibco #31966-021, HEK293T) with […] Heat Inactivated Fetal Bovine Serum (Gibco 10500-064) at 800 (NCI-H226 and HEK-293T) or 2000 (NCI-H23) cells per well at 37° C., […], humidified incubator; 24 hours later, fresh growth media containing test compound or DMSO vehicle was added and incubated with the cells for 144 hrs. TEAD inhibitor stocks were made at a 1000× fold excess in DMSO, and a dose response test compound dose range of 10,000 to 0.1 nM was used. Each treatment was carried out in triplicate. After 144 hrs of treatment, relative cell viability numbers were determined using the CellTiter-Glo 2.0 assay following the manufacturer's instructions. Test plates and CellTiter-Glo 2.0 reagent were allowed to equilibrate to room temperature. CellTiter-Glo 2.0 reagent was added at 1:1 reagent to media ratio to the 96-well cell plates, plates were placed on a plate shaker for 2 minutes and then incubated at room temperature for a further 10 minutes to allow complete cell lysis to occur. The mix was then transferred to white, 96-well luminometer assay plates (Greiner Bio One #655075). Luminescence was quantified using a CLARIOStar Plus multi-mode plate reader (BMG Labtech) in luminescence detection mode with the recommended settings (ultra-Glo pre-set: emission 545-50 nm with autofocus and enhanced dynamic range on). Relative cell density was expressed as a function of inhibitor concentration, with respect to DMSO-only control wells. Data where plotted using GraphPad Prism and IC50 values for the biological effect were calculated using the EC50 non-linear fit function using a sigmoidal, 4-parameter logistic, least squares fit with no constraints.
For IC50 and EC50 data “A” indicates a value of less than 0.2 μM; the symbol “B” indicates a value in the range of from 0.2 μM up to 1 μM; and the symbol “C” indicates a value of greater than 1 μM. ND: no data.

[1] = Homo sapiens, NCI-H226, responder cell line

EC50 (NCI-H226 cells; [1]) [nM]	EC50 (NCI-H226 cells; responder cell line) [nM]	SMILES	EC50 (MSTO-211H cells) [nM]	EC50 (BHY cells) [nM]
< 200		Cn1cnc(-c2cc([C@@]3(C)CCNC3=O)ccc2Nc2ccc(C(F)(F)F)cc2)c1 (single isomer, unassigned) [Compound 5, 3-methyl-3-(3-(1-methyl-1H-imidazol-4-yl)-4-((4-(trifluoromethyl)phenyl)amino)phenyl)pyrrolidin-2-one]	< 200	200 to 1000
< 200		Cn1nnc(-c2cc([C@]3(C)CCNC3=O)ccc2Nc2ccc(C(F)(F)F)cc2)n1 (stereo in doubt) [Compound 20, 3-methyl-3-(3-(2-methyl-2H-tetrazol-5-yl)-4-((4-(trifluoromethyl)phenyl)amino)phenyl) pyrrolidin-2-one]	< 200	
		C=CC(=O)Nc1ccc(C)c(Oc2ccc(Cl)cc2)c1 [Compound 1-3, reference compound]	< 200	< 200
		FC(F)(F)c1ccc(CN2CCC(C3CC(Br)=NO3)CC2)cc1 (centres unmarked) [Compound 1-2, reference compound]	< 200	> 1000
	< 200	Cn1cnc(-c2cc(C3(C)NC(=O)NC3=O)ccc2Nc2ccc(C(F)(F)F)cc2)c1 (single isomer, unassigned) [Compound 15, 5-methyl-5-(3-(1-methyl-1H-imidazol-4-yl)-4-((4-(trifluoromethyl)phenyl)amino)phenyl)imidazolidine-2,4-dione]	< 200	
